As usually defined, the pIC50 is the negative decadic logarithm of the IC50, by convention in mol/L. A lower pIC50 goes with a high IC50.

pIC50: −log10 of the molar value.

The target of the first experiment is T1, HMG-CoA synthase (Rattus norvegicus, UniProt P17425).
T1 construct: The livers from male Charles River CD rats (225-350 g) were homogenized; from tissue; host or cells: rat liver (male Charles River CD rats), 100,000 x g supernatant, ammonium sulfate and DEAE-52 fraction
T1 sequence (P17425 1-520): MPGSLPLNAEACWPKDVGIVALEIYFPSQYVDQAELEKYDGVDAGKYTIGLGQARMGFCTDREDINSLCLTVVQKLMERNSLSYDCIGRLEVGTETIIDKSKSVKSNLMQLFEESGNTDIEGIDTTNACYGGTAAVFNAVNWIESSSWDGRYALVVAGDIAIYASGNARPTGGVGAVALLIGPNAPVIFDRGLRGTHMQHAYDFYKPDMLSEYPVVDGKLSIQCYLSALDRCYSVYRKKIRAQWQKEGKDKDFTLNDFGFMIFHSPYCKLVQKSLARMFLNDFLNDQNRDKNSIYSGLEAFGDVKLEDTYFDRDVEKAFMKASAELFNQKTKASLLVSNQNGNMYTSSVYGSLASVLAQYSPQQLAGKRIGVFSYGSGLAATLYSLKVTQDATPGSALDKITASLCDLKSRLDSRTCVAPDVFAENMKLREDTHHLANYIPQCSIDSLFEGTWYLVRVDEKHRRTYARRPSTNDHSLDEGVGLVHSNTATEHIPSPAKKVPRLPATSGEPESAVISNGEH
Briefly: HMG-CoA Synthase Inhibition Assay. In kind it is biochemical. Particulars: Table I; rat liver enzyme, 1-[14C]-acetyl-CoA incorporation. The protocol:
The intrinisic HMG-CoA synthase inhibition activity of the compounds of this invention is measured by the standard in vitro protocol described below:
The livers from male Charles River CD rats (225-350 g) were homogenized in 0.25 M sucrose which was adjusted with phenylmethylsulfonylfluoride (PMSF) and N-p-tosyl-1-lysine chloromethyl ketone (TLCK) so that the final concentration of each was […], respectively. The homogenate was centrifuged at 15,000× g for 20 minutes, the supernatant filtered through a fine nylon screen to remove most of the fat layer and recentrifuged at 100,000× g for 1 hour. This supernatant was removed and 1 M potassium phosphate, dithiothreitol (DTT) and ethylene glycolbis(β-aminoethyl ether)-N,N,N',N'-tetraacetic acid (EGTA) added to give a final concentration of 0.1 M (pH 7.2), 0.5 mM and 0.1 mM, respectively. Solid ammonium sulfate was added to 50% saturation to the protein solution, it was centrifuged at 15,000× g and the supernatant discarded. This precipitated protein could be stored at -70° C. for at least one month with very little loss of activity. The ammonium sulfate precipitate was dissolved in an minimal amount of 0.06 M potassium phosphate buffer (pH 7.2) containing 0.5 mM dithiothreitol and 0.1 mM EGTA (referred to as 0.06 M phosphate buffer) and dialyzed overnight against 2 liters of the same buffer to remove the ammonium sulfate and to inactivate HMG-CoA lyase [Clinkenbeard, et al., J. Biol. Chem. 250, 3108-3116(1975)].
The dialyzed extract was added to a column of DEAE-52 (Whatman) which had been equilibrated with 0.06 M phosphate buffer (10 mg of protein in 1 ml bed volume of the resin). The DEAE-cellulose was eluted with 0.06 M phosphate buffer until the optical density at 280 nm was essentially zero. This fraction contained the β-ketoacetyl-CoA thiolase activity. The HMG-CoA synthase was eluted from the column with 0.1 M phosphate buffer (pH 7.2) containing 0.5 mM DTT and […] EGTA, and was virtually free of all thiolase activity. The protein was precipitated by the addition of ammonium sulfate to give 50% saturation. This solution was stirred for 10 minutes at 4° C. and the precipitate collected by centrifugation at 15,000 rpm for 10 minutes. The supernatant was discarded and the precipitate dissolved in a minimum of 0.06 M phosphate buffer, pH 7.2 (about 10 ml) and the enzyme stored at -80° C.
HMG-CoA Synthase Inhibition Assay
Enzyme protein (ca. 24 mg) was added to a solution containing […] Tris-HCl (pH 8.0), 11.7 μM MgCl2, 1.17 μM ethylenediaminetetraacetic acid (EDTA), 0.58 μM dithiothreitol, and the indicated concentrations of the test compound (added as a 2 mg/ml solution in dimethylsulfoxide). The incubation took place in a volume of 0.085 ml at 30° in a shaking water bath. After 5 minutes, […] of a solution containing acetoacetyl-CoA and 0.1 μCi of 1-[^14 C]-acetyl-CoA was added to give a final concentrations of 0.1 and 0.4 μM, respectively. The incubation was continued for 10 more minutes and the reaction stopped by the addition of […] of the assay mixture to 0.2 ml of 6N HCl in a glass scintillation vial. The vial was heated for 1 hour at 120° after which time 0.2 ml more of 6N HCl was again added to each vial and the heating continued for another hour. Following this, 1.0 ml of 0.9% saline was added to each vial and finally 10 ml of scintillation liquid. Radioactivity was determined in a Packard Tri-Carb liquid scintillation counter. Percent inhibition is calculated by the formula: [formula]
IC50 values were determined by plotting the log of the concentration of the test compound verses the percentage inhibition and fitting a straight line to the resulting data by using the least squares method.
As for `CC[C@@H]1C(=O)N(S(=O)(=O)c2ccc(C)cc2)[C@@H]1COC(=O)c1cccc(N)c1` (relative stereo) [Table I v], the negative logarithm of the IC50 (pIC50) is 7.35.
Take `CC[C@@H]1C(=O)N(S(=O)(=O)c2ccc(C)cc2)[C@@H]1COC(=O)c1ccncc1` (relative stereo) [Table I d]: the negative logarithm of the IC50 (pIC50) is 7.21.
For `CC[C@@H]1C(=O)N(S(=O)(=O)c2ccc(C)cc2)[C@@H]1COC(=O)c1ccc(OC)cc1` (relative stereo) [Table I cc], the pIC50 was 7.52.
`CCCCc1ccc(C(=O)OC[C@@H]2[C@H](CC)C(=O)N2S(=O)(=O)c2ccc(C)cc2)nc1` (relative stereo) [Table I h] had a negative-log IC50 (pIC50) of 7.35.
Same read-out and setting: in the case of `CC[C@@H]1C(=O)N(S(=O)(=O)c2ccc(C)cc2)[C@@H]1COC(=O)c1ccc(OC)nc1` (relative stereo) [Table I f] it was 7.39; in that of `CC[C@@H]1C(=O)N(S(=O)(=O)c2ccc(C)cc2)[C@@H]1COC(=O)c1ccc(C(=O)O)cc1` (relative stereo) [Table I x], 6.46; in that of `CC[C@@H]1C(=O)N(S(=O)(=O)c2ccc(C)cc2)[C@@H]1COC(=O)c1ccc(N)cc1` (relative stereo) [Table I kk], 7.33.
In turn, `CC[C@@H]1C(=O)N(S(=O)(=O)c2ccc(C)cc2)[C@@H]1COC(=O)c1ccco1` [Table I gg] gave a pIC50 of 7.96.
Consider `CC[C@@H]1C(=O)N(S(=O)(=O)c2ccc(C)cc2)[C@@H]1COC(=O)c1ccc([N+](=O)[O-])cc1` (relative stereo) [Table I y], for which the negative logarithm of the IC50 (pIC50) is 7.55.
`CC[C@@H]1C(=O)N(S(=O)(=O)c2ccc(C)cc2)[C@@H]1COC(=O)c1ccccc1[N+](=O)[O-]` (relative stereo) [Table I c]: the pIC50 was 7.64.
Regarding `CCC[C@@H]1C(=O)N(S(=O)(=O)c2ccc(C)cc2)[C@@H]1COC(=O)c1ccc(OC)cc1` (relative stereo) [Table I z], the pIC50 was 7.16.
Compound `CC[C@@H]1C(=O)N(S(=O)(=O)c2ccc(C)cc2)[C@@H]1COC(=O)c1cccc(NC(C)=O)c1` (relative stereo) [Table I u] showed a pIC50 of 7.14.
Regarding `COc1ccc(C(=O)OC[C@@H]2[C@H](CO)C(=O)N2S(=O)(=O)c2ccc(C)cc2)cc1` (relative stereo) [Table I aa], the pIC50 is 6.74.
As for `CC[C@@H]1C(=O)N(S(=O)(=O)c2ccc(C)cc2)[C@H]1COC(=O)c1ccc(OC)cc1` (relative stereo) [Table I tt], the pIC50 was 6.77. The pIC50 values of the last two compounds are within 0.2 log units of each other.
The same measure, in the same setting: for `CCCCNC(=O)c1ccc(C(=O)OC[C@@H]2[C@H](CC)C(=O)N2S(=O)(=O)c2ccc(C)cc2)cc1` (relative stereo) [Table I jj] the value was 7.70; for `CC[C@@H]1C(=O)N(S(=O)(=O)c2ccc(C)cc2)[C@@H]1COC(=O)c1cccnc1Oc1ccccc1` (relative stereo) [Table I t], 7.48; for `CCC[C@@H]1C(=O)N(S(=O)(=O)c2ccc(C)cc2)[C@H]1COC(=O)c1ccc(OC)cc1` (relative stereo) [Table I rr], 7.46.
`C=CCOc1c(NC(C)=O)cc(C(=O)OC[C@@H]2[C@H](CC)C(=O)N2S(=O)(=O)c2ccc(C)cc2)cc1OC` (relative stereo) [Table I mm] gave a pIC50 of 6.52. This pIC50 is 0.94 log units lower than that of the compound before.
`CC[C@@H]1C(=O)N(S(=O)(=O)c2ccc(C)cc2)[C@@H]1COC(=O)c1ccccc1N` (relative stereo) [Table I n]: the pIC50 is 7.51.
In the case of `CC[C@@H]1C(=O)N(S(=O)(=O)c2ccc(C)cc2)[C@@H]1COC(=O)c1ccc2ccccc2n1` (relative stereo) [Table I p], the negative logarithm of the IC50 (pIC50) was 7.68. This pIC50 and that of the compound before are within 0.2 log units of each other.
`CC[C@@H]1C(=O)N(S(=O)(=O)c2ccc(C)cc2)[C@@H]1COC(=O)c1ccc(OC)c(OC)n1` (relative stereo) [Table I pp] had a pIC50 of 7.05.
In the case of `CC[C@@H]1C(=O)N(S(=O)(=O)c2ccc(C)cc2)[C@@H]1COC(=O)c1ccsc1` (relative stereo) [Table I a], the pIC50 was 6.15.
`COc1ccc(C(=O)OC[C@H]2[C@H](CO)C(=O)N2S(=O)(=O)c2ccc(C)cc2)cc1` (relative stereo) [Table I ss]: the negative-log IC50 (pIC50) is 6.82.
`CC[C@@H]1C(=O)N(S(=O)(=O)c2ccc(C)cc2)[C@@H]1COC(=O)c1ccco1` (relative stereo) [Table I g]: the pIC50 was 8.10. This pIC50 lies 1.28 log units higher than the previous one.

The same experiment, now with this note: Table II; rat liver enzyme, 1-[14C]-acetyl-CoA incorporation.
The compound `CC[C@@H]1C(=O)N(S(=O)(=O)c2ccc(C)cc2)[C@@H]1COC(=O)/C=C/c1ccco1` (relative stereo) [Table II m] gave a pIC50 of 6.60.
In the case of `CC[C@H]1C(=O)N(S(=O)(=O)c2ccc(C)cc2)[C@H]1COC(=O)NC1CCCCC1` (relative stereo) [Table II w], the pIC50 is 7.27.
`CC[C@H]1C(=O)N(S(=O)(=O)c2ccc(C)cc2)[C@H]1COC(=O)Cc1ccc(OC)c(OC)c1` (relative stereo) [Table II y] gave a pIC50 of 7.52.
`CC[C@H]1C(=O)N(S(=O)(=O)c2ccc(C)cc2)[C@H]1COC(=O)Cc1cc(OC)c(OC)c(OC)c1` (relative stereo) [Table II s]: the negative-log IC50 (pIC50) is 7.70.
Compound `CC[C@@H]1C(=O)N(S(=O)(=O)c2ccc(C)cc2)[C@@H]1COC(=O)/C=C/c1ccc(OC)cc1` [Table II k] gave a pIC50 of 7.96.
Turning to `CC[C@H]1C(=O)N(S(=O)(=O)c2ccc(C)cc2)[C@H]1COC(=O)CSc1ccccc1` (relative stereo) [Table II q], the pIC50 was 7.38.
Consider `CO[C@@H](C(=O)OC[C@@H]1CC(=O)N1S(=O)(=O)c1ccc(C)cc1)c1ccccc1` [Table II f], for which the pIC50 was 7.30.
On to `CC[C@@H]1C(=O)N(S(=O)(=O)c2ccc(C)cc2)[C@@H]1COC(=O)Cc1ccco1` (relative stereo) [Table II l], for which the pIC50 was 5.62. Against the preceding compound, the pIC50 is 1.68 log units lower.

The same experiment, now with this note: Table IV; rat liver enzyme, 1-[14C]-acetyl-CoA incorporation.
In the case of `CC[C@@H]1C(=O)N(S(=O)(=O)c2ccc(C)cc2)[C@@H]1C(C)=Cc1ccccc1` (relative stereo) [Table IV f], the pIC50 is 6.37.
`CCC[C@H]1C(=O)N(S(=O)(=O)c2ccc(C)cc2)[C@@H]1C=Cc1ccccc1` (relative stereo) [Table IV a] gave a pIC50 of 5.82.
Compound `CCC[C@H]1C(=O)N(S(=O)(=O)c2ccc(C)cc2)[C@H]1C=Cc1ccccc1` (relative stereo) [Table IV b] gave a negative-log IC50 (pIC50) of 5.66. This pIC50 and that of the compound before are within 0.2 log units of each other.

The experiment is the same for the next values; noted with them: Table V; rat liver enzyme, 1-[14C]-acetyl-CoA incorporation.
Compound `CC[C@H]1C(=O)N(S(=O)(=O)c2ccc(C)cc2)[C@H]1CCc1ccccc1` (relative stereo) [Table V b] showed a pIC50 of 7.07.
`CC(=O)OC(c1ccccc1)C(C)C1CC(=O)N1S(=O)(=O)c1ccc(C)cc1` (centres unmarked) [Table V f] had a pIC50 of 6.31.

The same experiment, now with this note: Table VI; rat liver enzyme, 1-[14C]-acetyl-CoA incorporation.
Compound `Cc1ccc(S(=O)(=O)N2C(=O)C(C)(C)C2C=Cc2ccccc2)cc1` (centres unmarked) [Table VI c] gave a pIC50 of 6.17.

Values taken from patent US4983597A, “Beta-lactams as anticholesterolemic agents” (Merck & Co., Inc., priority 1989, dated 1991).
